In patent publication US20240109881A1, “Heteroaryl Compounds as Ligand Directed Degraders of IRAK4” (Bristol-Myers Squibb Company, priority 2022, published 2024):

Molecular target: T1, IRAK4 (Homo sapiens, UniProt Q9NWZ3)
T1 construct: endogenous in cells; host or cells: THP-1 cells
T1 sequence (Q9NWZ3 1-460): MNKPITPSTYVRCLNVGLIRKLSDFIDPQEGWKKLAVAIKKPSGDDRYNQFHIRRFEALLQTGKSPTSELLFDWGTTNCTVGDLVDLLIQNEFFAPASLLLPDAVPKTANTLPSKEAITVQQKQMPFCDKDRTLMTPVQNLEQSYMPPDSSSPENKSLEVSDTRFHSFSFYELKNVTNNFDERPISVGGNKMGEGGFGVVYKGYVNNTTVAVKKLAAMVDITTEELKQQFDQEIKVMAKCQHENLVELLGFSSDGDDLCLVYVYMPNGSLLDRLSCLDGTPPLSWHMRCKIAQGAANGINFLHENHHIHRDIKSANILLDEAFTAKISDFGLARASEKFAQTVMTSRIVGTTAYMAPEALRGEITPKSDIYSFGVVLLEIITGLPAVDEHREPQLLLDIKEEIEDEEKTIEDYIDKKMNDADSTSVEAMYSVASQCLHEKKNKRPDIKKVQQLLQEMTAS
Test: LVL THP1 HTRF (THP1 Homogeneous Time Resolved Fluorescence)
Assay type: cell-based
Conditions: THP1 cells, 18 h incubation with compound; for DC50: read-out: LVL THP1 HTRF EC50
Procedure, shortened: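 IRAK4 HTRF read-out (665/615 nm ratio, anti-IRAK4 d2 acceptor and K donor, 18 h dark incubation at room temperature) on lysates of THP-1 cells. Cells were treated 18 h at 37° C. with 20 nL compound in DMSO, in colorless RPMI with 10% FBS, with a duplicate CTG plate.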

Structure (SMILES)	LVL THP1 HTRF YMIN [%]	DC50 [nM]
C[C@H](C#N)Nc1cc(-n2ncc3cc(C#N)cnc32)ncc1-n1cc([C@H]2CC[C@H](CCN3CC[C@H]4[C@@H]3CCN4c3ccc(N4CCC(=O)NC4=O)c(Cl)c3)CC2)nn1 (single isomer, unassigned) [P-464]	−7.1	0.7
Cc1cc(N2CC[C@H]3[C@@H]2CCN3CC[C@H]2CC[C@H](c3cn(-c4cnc(-n5ncc6cc(C#N)cnc65)cc4N[C@H](C)C#N)nn3)CC2)ccc1N1CCC(=O)NC1=O (single isomer, unassigned) [P-470]	10.6	29.7
Cc1cc(N2CC[C@H]3[C@@H]2CCN3CC[C@H]2CC[C@H](c3cn(-c4cnc(-n5ncc6cc(C#N)cnc65)cc4N[C@H](C)C#N)nn3)CC2)ccc1N1CCC(=O)NC1=O (single isomer, unassigned) [P-474]	5.0	70
C[C@H](C#N)Nc1cc(-n2ncc3cc(C#N)cnc32)ncc1-n1cc([C@H]2CC[C@H](CCN3CC[C@H]4[C@@H]3CCN4c3ccc(N4CCC(=O)NC4=O)c(Cl)c3)CC2)nn1 (single isomer, unassigned) [P-478]	17.1	161
C[C@H](C#N)Nc1cc(-n2ncc3cc(C#N)c(N)nc32)ncc1-n1cc([C@H]2CC[C@H](CCN3CCN(c4ccc([C@@]5(C)CCC(=O)NC5=O)cc4)[C@H](C)C3)CC2)nn1 (stereo in doubt) [P-260]	7.6	17
C[C@H](C#N)Nc1cc(-n2ncc3cc(C#N)cnc32)ncc1-n1cc([C@H]2CC[C@H](CCN3CCC(c4ccc([C@@]5(C)CCC(=O)NC5=O)cc4)C(F)C3)CC2)nn1 (stereo in doubt) [P-310]	1.3	3.6
CC[C@H](C#N)Nc1cc(-n2ncc3cc(C#N)cnc32)ncc1-n1cc([C@H]2CC[C@H](CCN3CCN(c4ccc(C5CCC(=O)NC5=O)cc4)CC3)CC2)nn1 (stereo in doubt) [P-392]	3.5	8.7
N#Cc1cnc2c(cnn2-c2cc(N[C@@H]3CCOC3)c(-n3cc([C@H]4CC[C@H](CCN5CCN(c6ccc(C7CCC(=O)NC7=O)cc6)CC5)CC4)nn3)cn2)c1 (stereo in doubt) [P-405]	3.1	4.8
O=C1CCC(N2C(=O)c3ccc(NCCCNC(=O)C4CCC(NC(=O)c5cnc(Nc6ccc7ncsc7c6)cc5NC5CCCC5)CC4)cc3C2=O)C(=O)N1 (stereo not drawn) [P-1]	33.3	148
CC(F)(F)CNc1cc(-n2ncc3cc(C#N)cnc32)ncc1-n1cc(C2CCC(CCN3CCN(c4ccc(C5CCC(=O)NC5=O)cc4)CC3)CC2)nn1 (stereo not drawn) [P-169]	3.0	
CC(F)(F)CNc1cc(-n2ncc3cc(C#N)cnc32)ncc1-n1cc([C@H]2CC[C@H](CCN3CCN(c4ccc(C5CCC(=O)NC5=O)cc4)CC3)CC2)nn1 (stereo partly drawn) [P-169]		26
Cc1cc(C2CCC(=O)NC2=O)ccc1N1CCN(CC[C@H]2CC[C@H](NC(=O)c3cnc(-n4ncc5cc(C#N)c(N)nc54)cc3N[C@H](C)C#N)CC2)C[C@H]1C (stereo partly drawn) [P-170]	0.9	14
Cc1cc(N2CCN(CC[C@H]3CC[C@H](NC(=O)c4cnc(-n5ncc6cc(C#N)c(N)nc65)cc4N[C@H](C)C#N)CC3)C[C@H]2C)ccc1C1CCC(=O)NC1=O (stereo partly drawn) [P-171]	1.2	23
Cc1cc(N2CCN(CC[C@H]3CC[C@H](NC(=O)c4cnc(-n5ncc6cc(C#N)c(N)nc65)cc4N[C@H](C)C#N)CC3)C[C@H]2C)ccc1C1CCC(=O)NC1=O (stereo partly drawn) [P-172]	1.1	10
C[C@H](C#N)Nc1cc(-n2ncc3cc(C#N)c(N)nc32)ncc1C(=O)N[C@H]1CC[C@H](CCN2CCN(c3ccc(C4CCC(=O)NC4=O)c(F)c3)[C@H](C)C2)CC1 (stereo partly drawn) [P-173]	0.7	11
C[C@H](C#N)Nc1cc(-n2ncc3cc(C#N)cnc32)ncc1C(=O)N[C@H]1CC[C@H](CCN2CC3CC2CN3c2ccc(C3CCC(=O)NC3=O)cc2)CC1 (stereo partly drawn) [P-179]	2.0	65
COc1nc2c(cnn2-c2cc(N[C@H](C)C#N)c(C(=O)N[C@H]3CC[C@H](CCN4CCN(c5ccc(C6CCC(=O)NC6=O)cc5)CC4)CC3)cn2)cc1C#N (stereo partly drawn) [P-184]	1.3	51
CC(F)(F)CNc1cc(-n2ncc3cc(C#N)c(N)nc32)ncc1C(=O)N[C@H]1CC[C@H](CCN2CCN(c3ccc(C4CCC(=O)NC4=O)cc3)CC2)CC1 (stereo partly drawn) [P-185]	1.5	17
C[C@H](C#N)Nc1cc(-n2ncc3cc(C#N)c(N)nc32)ncc1C(=O)N[C@H]1CC[C@H](CCN2CCN(c3ccc(C4CCC(=O)NC4=O)c(Cl)c3)[C@H](C)C2)CC1 (stereo partly drawn) [P-187]	1.4	20
CNc1nc2c(cnn2-c2cc(N[C@H](C)C#N)c(C(=O)N[C@H]3CC[C@H](CCN4CCN(c5ccc(C6CCC(=O)NC6=O)cc5)CC4)CC3)cn2)cc1C#N (stereo partly drawn) [P-188]	1.1	6

The next lines start with the values.

LVL THP1 HTRF YMIN [%]	DC50 [nM]	Structure (SMILES)
0.8	26	C[C@H](C#N)Nc1cc(-n2ncc3cc(C#N)cnc32)ncc1-n1cc([C@H]2CC[C@H](CCN3CC[C@H]4[C@@H]3CCN4c3ccc(N4CCC(=O)NC4=O)c(F)c3)CC2)nn1 (single isomer, unassigned) [P-480]
2.7	8	C[C@H](C#N)Nc1cc(-n2ncc3cc(C#N)c(N)nc32)ncc1-n1cc([C@H]2CC[C@H](CCN3CC[C@H]4[C@@H]3CCN4c3ccc([C@@]4(C)CCC(=O)NC4=O)cc3)CC2)nn1 (single isomer, unassigned) [P-487]
41.7	4440	C[C@H](C#N)Nc1cc(-n2ncc3cc(C#N)cnc32)ncc1C(=O)N[C@H]1CC[C@@H](CCN2CC[C@H]3[C@@H]2CCN3c2ccc(N3CCC(=O)NC3=O)c(Cl)c2)CC1 (single isomer, unassigned) [P-488]
14.9	156	C[C@H](C#N)Nc1cc(-n2ncc3cc(C#N)cnc32)ncc1-n1cc([C@H]2CC[C@H](CCN3CCC(c4ccc(N5CCC(=O)NC5=O)cc4)C3)CC2)nn1 (single isomer, unassigned) [P-491]
−0.2	35	C[C@H](C#N)Nc1cc(-n2ncc3cc(C#N)cnc32)ncc1C(=O)N[C@H]1CC[C@H](CCN2CC[C@H]3[C@@H]2CCN3c2ccc([C@@]3(C)CCC(=O)NC3=O)cc2)CC1 (single isomer, unassigned) [P-492]
21.2	110	C[C@H](C#N)Nc1cc(-n2ncc3cc(C#N)cnc32)ncc1-n1cc([C@H]2CC[C@H](CCN3CC[C@H]4[C@@H]3CN4c3ccc(N4CCC(=O)NC4=O)cc3)CC2)nn1 (single isomer, unassigned) [P-494]
2.7	110	C[C@H](C#N)Nc1cc(-n2ncc3cc(C#N)cnc32)ncc1-n1cc([C@H]2CC[C@H](CCN3CC[C@@H]4[C@H]3CN4c3ccc(N4CCC(=O)NC4=O)cc3)CC2)nn1 (single isomer, unassigned) [P-495]
13.6	239	C[C@H](C#N)Nc1cc(-n2ncc3cc(C#N)cnc32)ncc1-n1cc([C@H]2CC[C@H](CCN3CCC(c4ccc(N5CCC(=O)NC5=O)cc4)C3)CC2)nn1 (single isomer, unassigned) [P-497]
−0.52	43.4	C[C@H](C#N)Nc1cc(Nc2ncc(C#N)cc2Cl)ncc1-n1cc([C@H]2CC[C@H](CCN3CC[C@H]4[C@@H]3CCN4c3ccc(N4CCC(=O)NC4=O)cc3)CC2)nn1 (single isomer, unassigned) [P-500]
82.16	1000	C[C@H](C#N)Nc1cc(Nc2ncc(C#N)cc2Cl)ncc1-n1cc([C@H]2CC[C@H](CCN3CCN(c4ccc(N5CCC(=O)NC5=O)cc4)[C@@H]4COC[C@@H]43)CC2)nn1 (single isomer, unassigned) [P-503]
9.83	197	C[C@H](C#N)Nc1cc(-n2ncc3cc(C#N)cnc32)ncc1-n1cc(C2CCC(CCN3CCN(c4ccc(N5CCC(=O)NC5=O)cc4)[C@@H]4CCC[C@@H]43)CC2)nn1 (single isomer, unassigned) [P-505]
65.39	1000	C[C@H](C#N)Nc1cc(Nc2ncc(C#N)cc2Cl)ncc1-n1cc([C@H]2CC[C@H](CCN3CCN(c4ccc(N5CCC(=O)NC5=O)cc4)[C@@H]4CCC[C@@H]43)CC2)nn1 (single isomer, unassigned) [P-506]
−1.72	62.8	C[C@H](C#N)Nc1cc(Nc2ncc(C#N)cc2F)ncc1-n1cc([C@H]2CC[C@H](CCN3CC[C@H]4[C@@H]3CCN4c3ccc(N4CCC(=O)NC4=O)cc3)CC2)nn1 (single isomer, unassigned) [P-507]
5.2	8	C[C@H](C#N)Nc1cc(-n2ncc3ccc(N4C[C@H]5C[C@@H]4CO5)nc32)ncc1-n1cc([C@H]2CC[C@H](CCN3CCC(c4ccc([C@@]5(F)CCC(=O)NC5=O)cc4)CC3)CC2)nn1 (single isomer, unassigned) [P-513]
